# Ends that are not written are not given here.
# Experiments:
# MDA-MB-468 TNBC cells = assay: MTT cell viability, SNI-1 analogs; assay type: cell-based, human; details: 24 h
# Experimental: FIGS. 22A-B show SNI-1 analogs enhance Adriamycin inhibition of TNBC cell growth. FIGS. 22A-B show cells treated with indicated dose of noted agent for 24 h, and their viabilities determined by MTT assay. Columns represent means of three independent experiments; bars, SE.
# MDA-MB-468 TNBC cells were next treated with each of the analog in vitro as a single agent or in combination with Adriamycin in vitro.
# [1] = tested on: parental and chemo-resistant human and murine TNBC cells and parental renal cancer cells; assay: Cytokine ELISA of culture media, chemotherapy-induced secretion; assay type: cell-based; details: single agent
# [2] = target: T1, Flag-CARP-1 (546-580) binding with Biotin-NEMO (221-261) (Homo sapiens, UniProt Q8IX12); assay: AlphaLISA assay of CARP-1/NEMO peptide binding (HTS format); details: read-out: IC50, inhibition of binding of CARP-1 (546-580) with NEMO (221-261) peptide
# T1 construct: Flag-tagged CARP-1 (546-580); purchased Peptides America, Fairfax, Va; host or cells: chemical synthesis
# Description: The predicted kinetics of interaction of CARP-1 (551-600; SEQ ID NO: 5) and NEMO (221-261; SEQ ID NO: 2) epitopes was further validated by utilizing respective, chemically synthesized peptides to determine their in-solution binding by SPR technology (Sekhar et al. (2019) Cancers (Basel) 11). […] On the collective basis of the data in FIG. 1, and biophysical and SPR data above, in vitro binding assays were developed utilizing chemically synthesized CARP-1 and NEMO peptides. In the first instance, CARP-1 (551-580; SEQ ID NO: 6) and NEMO (221-261; SEQ ID NO: 2) peptides were used to carry out buffer optimization and DMSO tolerance of the assay. […] Presence of 0.01% tween minimizes non-specific binding and generates higher reproducibility as noted by smaller error bars in FIG. 15A. […]
# The AlphaLISA assay for high throughput screening: For screening of a library of chemical compounds, an […] assay was developed and optimized for use in 384-well format (SAMDI Tech, Chicago, Ill.). […] The assay signal (Fluorescence) was measured at 680 nm excitation and 615 nm emission wavelengths to determine assay robustness and DMSO tolerance. […] The plates were read on a Pherastar FS plate reader. […] Those wells were further analyzed to investigate the 8 compounds individually in duplicate.
# NEMO (221-260) peptide = target: T2, NEMO (221-260) peptide (Homo sapiens, UniProt Q9Y6K9); assay: Surface Plasmon Resonance kinetics of CARP-1 peptide binding with NEMO peptide; details: SPR
# T2 construct: host or cells: chemical synthesis
# Experimental: Next, kinetics of CARP-1 binding with NEMO were determined by Surface Plasmon Resonance (SPR) Technology (Profacgen, Shirley, N.Y.). Briefly, CARP-1 (551-580) peptide (Amino terminal-[…]-Carboxyl terminal; SEQ ID NO: 6) was dissolved in water, and various concentrations of CARP-1 Peptide were manually printed onto the bare gold-coated (thickness 47 nm) PlexArray Nanocapture Sensor Chip (Plexera Bioscience, Seattle, Wash., US) at 40% humidity. Each concentration was printed in replicate, and each spot contained 0.2 μL of sample solution. The chip was incubated in 80% humidity at 4° C. for overnight, and rinsed with 10×PBST for 10 min, 1×PBST for 10 min, and deionized water twice for 10 min. The chip was then blocked with 5% (w/v) non-fat milk in water overnight, and washed with 10×PBST for 10 min, 1×PBST for 10 min, and deionized water twice for 10 min before being dried under a stream of nitrogen prior to use. The binding reactions with NEMO (221-260; SEQ ID NO: 7) peptide (Amino terminal-[…]-Carboxyl terminal; SEQ ID NO: 7) were performed in PBST buffer (0.01M phosphate buffered saline (0.138 M NaCl; 0.0027 M KCl), 0.05% Tween-20, pH 7.4). SPRi measurements were performed with PlexAray HT (Plexera Bioscience, Seattle, Wash., US). […] The signal changes after binding and washing (in AU) were recorded as the assay value. Selected protein-grafted regions in the SPR images were analyzed, and the average reflectivity variations of the chosen areas were plotted as a function of time. Real-time binding signals were recorded and analyzed by Data Analysis Module (DAM, Plexera Bioscience, Seattle, Wash., US). […]
# Association and dissociation rate constants were calculated by numerical integration and global fitting to a 1:1 interaction model and the equation: dRU(t)/dt=kaC(R^max−RU(t))−kdRU(t), where RU(t) is the response at time t, Rmax is the maximum response, C is the concentration of analyte in solution, ka is the association rate constant, kd is the dissociation rate constant, and RU (0)=0.
# T2 sequence (Q9Y6K9 222-261, one chain of several): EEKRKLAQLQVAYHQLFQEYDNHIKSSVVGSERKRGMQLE
# T1 sequence (Q8IX12 546-580 limits assumed): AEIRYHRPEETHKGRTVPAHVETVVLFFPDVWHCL
Compound,loss of cell viability in combination with Adriamycin versus Adriamycin alone (MDA-MB-468 TNBC cells),further results
Cc1ccc(-n2cnnc2S(=O)(=O)CC(=O)c2ccc(O)c(O)c2)cc1 [GL-210],minimal reduction in cell viabilities,
O=C(CSc1nc2ccccc2s1)c1ccc(O)c(O)c1 [GL-215],moderate reduction in cell viabilities,
Cc1ccc(-n2ccnc2S(=O)(=O)CC(=O)c2ccc(O)c(O)c2)cc1 [GL-213],loss of cell viabilities that were greater,
O=c1[nH]cc(F)c(=O)[nH]1 [5-FU],,"levels of TNFα, IL-8, and IL-1β in the media [1]: robust increase"
O=C(CSc1nc(-c2ccccc2)cs1)c1ccc(O)c(O)c1 [GL-216],loss of cell viabilities that were greater,
Cc1ccc(-n2ccnc2[S+]([O-])CC(=O)c2ccc(O)c(O)c2)cc1 (stereo not shown) [GL-212],moderate reduction in cell viabilities,
Cc1ccc(-n2ccnc2SCC(=O)c2ccc(O)c(O)c2)cc1 [GL-211],minimal reduction in cell viabilities,
"COc1ccc(S(=O)(=O)Nc2ccccc2C(=O)NCCc2ccccc2)cc1 [SNI-2, 2-{((4-methoxyphenyl)sulfonyl)amino}-N-(2-phenylethyl)benzamide]",,IC50 [2]: ~25 µM
HRPEETHKGRTVPAHVETVVLFFPDVWHCL [CARP-1 (551-580)],,"Kd (NEMO (221-260) peptide; chemically synthesized peptides, read-out: equilibrium dissociation constant (KD Value)): 0.102 µM; kon (NEMO (221-260) peptide; read-out: Ka (association rate constant)): 2070 M⁻¹ s⁻¹; koff (NEMO (221-260) peptide; read-out: Kd (dissociation rate constant)): 0.000212 s⁻¹"
Cc1ccc(-n2cnnc2SCC(=O)c2ccc(O)c(O)c2)cc1 [GL-208],minimal reduction in cell viabilities,
Cc1ccc(-n2cnnc2[S+]([O-])CC(=O)c2ccc(O)c(O)c2)cc1 (stereo not shown) [GL-209],loss of cell viabilities that were greater,

# — patent US20210106567A1, “COMPOSITIONS AND METHODS FOR INHIBITING CARP-1 BINDING TO NEMO” (United States Government As Represented By The Department …, priority 2019, published 2021)
